Data as given in ChEMBL document CHEMBL4765306, “Design, synthesis and biological evaluation of novel naturally-inspired multifunctional molecules for the management of Alzheimer's disease” (Eur J Med Chem, 2020).
Activity calls are given as the source filed them. The rule behind the calls is not given here.

Tests used:
Homo sapiens = species: Homo sapiens; test: Disruption of human amyloid beta 1 to 42 assessed as effect on amyloid beta 1 to 42 morphology at 1.58 uM incubated for 10 days by atomic force microscopic analysis; conditions: time 10.0 day
Mus musculus [1] = test: Memory enhancement effect in scopolamine-induced Swiss albino mouse model of amnesia assessed as effect on total arm entries at 5 mg/kg, po administered for 7 days and observed after 30 mins before scopolamine treatment and measured after 15 mins by Y-maze test; type: functional, organism-based; conditions: time 7.0 day
Mus musculus [2] = test: Memory enhancement effect in scopolamine-induced Swiss albino mouse model of amnesia assessed as increase in spontaneous alteration at 5 mg/kg, po administered for 7 days and observed after 30 mins before scopolamine treatment and measured after 15 mins by Y-maze test; type: functional, organism-based; conditions: time 7.0 day
[3] = Acute toxicity in Swiss albino mouse assessed as abnormal behaviour at 500 mg/kg, po administered once and observed for 14 days; type: organism-based; conditions: in vivo, 336 h, time 14 day
[4] = Antioxidant activity assessed as DPPH radical scavenging activity at 20 uM incubated for 25 mins in shaker relative to control; type: functional
Cholinesterase = Cholinesterase (Equus caballus, UniProt P81908); test: Inhibition of […] equine serum BuChE using butyryl thiocholine iodide as substrate preincubated for 30 mins followed by substrate addition and measured after 30 mins by spectrophotometry based Ellman's method; type: cell-free
Mus musculus [5] = test: Ex vivo inhibition of BChE in brain of scopolamine-induced Swiss albino mouse model of amnesia at 6.25 to 25 mg/kg, po administered for 7 days and observed after 30 mins before scopolamine treatment and measured after 15 mins using butyryl thiocholine iodide as substrate by Ellman's method; type: functional, organism-based; conditions: dose 6.25-25 mg/kg, time 7.0 day
[6] = Cytotoxicity against human SH-SY5Y cells assessed as reduction in cell viability at 20 uM incubated for 24 hrs by MTT assay; type: cell-based; conditions: read-out: INH
[7] = Acute toxicity in Swiss albino mouse assessed as effect on water consumption at 500 mg/kg, po administered once and observed for 14 days; type: organism-based; conditions: in vivo, 336 h, time 14 day
[8] = target: Cholinesterase (Equus caballus) (UniProt P81908); test: Inhibition of […] equine serum BuChE at 20 uM using butyryl thiocholine iodide as substrate preincubated for 30 mins followed by substrate addition and measured after 30 mins by spectrophotometry based Ellman's method relative to control; type: cell-free; conditions: time 60.0 min
Mus musculus [9] = test: Memory enhancement effect in scopolamine-induced Swiss albino mouse model of amnesia assessed as increase in spontaneous alteration at 6.25 to 25 mg/kg, po administered for 7 days and observed after 30 mins before scopolamine treatment and measured after 15 mins by Y-maze test; type: functional, organism-based; conditions: dose 6.25-25 mg/kg, time 7.0 day
Mus musculus [10] = test: Ex vivo antioxidant activity in brain of scopolamine-induced Swiss albino mouse model of amnesia assessed as increase in CAT level at 6.25 to 25 mg/kg, po administered for 7 days and observed after 30 mins before scopolamine treatment and measured after 15 mins; type: functional, organism-based; conditions: dose 6.25-25 mg/kg, time 7.0 day
[11] = Metal chelating activity assessed as Fe3+-compound complex formation at 300 uM measured for 30 mins by UV-Visible spectrophotometric method
[12] = Antioxidant activity assessed as DPPH radical scavenging activity incubated for 25 mins in shaker; type: functional
Acetylcholinesterase [13] = target: T1, Acetylcholinesterase (Homo sapiens, UniProt P22303); test: Non-competitive inhibition of recombinant human erythrocyte AChE at 1 to 10 uM using acetylthiocholine iodide as substrate preincubated for 30 mins followed by substrate addition and measured after 30 mins by Lineweaver-burk plot analysis; conditions: dose 1-10 µM, time 60.0 min
[14] = target: Cholinesterase (Equus caballus) (UniProt P81908); test: Mixed-type inhibition of […] equine serum BuChE at 7.5 to 30 uM using butyryl thiocholine iodide as substrate preincubated for 30 mins followed by substrate addition and measured after 30 mins by Lineweaver-burk plot analysis; type: cell-free; conditions: dose 7.5-30 µM, time 60.0 min
Mus musculus [15] = test: Ex vivo inhibition of AChE in brain of scopolamine-induced Swiss albino mouse model of amnesia at 6.25 to 25 mg/kg, po administered for 7 days and observed after 30 mins before scopolamine treatment and measured after 15 mins using acetylthiocholine iodide as substrate by Ellman's method; type: functional, organism-based; conditions: dose 6.25-25 mg/kg, time 7.0 day
[16] = Acute toxicity in Swiss albino mouse assessed as organism death at 500 mg/kg, po administered once and observed for 14 days; type: organism-based; conditions: in vivo, 336 h, time 14 day
[17] = Acute toxicity in Swiss albino mouse assessed as effect on food consumption at 500 mg/kg, po administered once and observed for 14 days; type: organism-based; conditions: in vivo, 336 h, time 14 day
[18] = Acute toxicity in Swiss albino mouse assessed as effect on body weight at 500 mg/kg, po administered once and observed for 14 days; type: organism-based; conditions: in vivo, 336 h, time 14 day
Acetylcholinesterase [19] = target: T1, Acetylcholinesterase; test: Inhibition of recombinant human erythrocyte AChE using acetylthiocholine iodide as substrate preincubated for 30 mins followed by substrate addition and measured after 30 mins by spectrophotometry based Ellman's method
[20] = Metal chelating activity assessed as Fe3+-compound complex formation at 300 uM measured for 30 mins by MS-MS analysis
Mus musculus [21] = test: Memory enhancement effect in scopolamine-induced Swiss albino mouse model of amnesia assessed as effect on total arm entries at 6.25 to 25 mg/kg, po administered for 7 days and observed after 30 mins before scopolamine treatment and measured after 15 mins by Y-maze test; type: functional, organism-based; conditions: dose 6.25-25 mg/kg, time 7.0 day
Mus musculus [22] = test: Ex vivo antioxidant activity in brain of scopolamine-induced Swiss albino mouse model of amnesia assessed as decrease in MDA level at 6.25 to 25 mg/kg, po administered for 7 days and observed after 30 mins before scopolamine treatment and measured after 15 mins; type: functional, organism-based; conditions: dose 6.25-25 mg/kg, time 7.0 day
[23] = Acute toxicity in Swiss albino mouse assessed as liver damage at 500 mg/kg, po administered once and observed after 14 days by microscopic analysis; type: organism-based; conditions: in vivo, 336 h, time 14 day
Mus musculus [24] = test: Ex vivo antioxidant activity in brain of scopolamine-induced Swiss albino mouse model of amnesia assessed as increase in SOD level at 6.25 to 25 mg/kg, po administered for 7 days and observed after 30 mins before scopolamine treatment and measured after 15 mins; type: functional, organism-based; conditions: dose 6.25-25 mg/kg, time 7.0 day

Chain of Cholinesterase (Equus caballus) (P81908 whole entry): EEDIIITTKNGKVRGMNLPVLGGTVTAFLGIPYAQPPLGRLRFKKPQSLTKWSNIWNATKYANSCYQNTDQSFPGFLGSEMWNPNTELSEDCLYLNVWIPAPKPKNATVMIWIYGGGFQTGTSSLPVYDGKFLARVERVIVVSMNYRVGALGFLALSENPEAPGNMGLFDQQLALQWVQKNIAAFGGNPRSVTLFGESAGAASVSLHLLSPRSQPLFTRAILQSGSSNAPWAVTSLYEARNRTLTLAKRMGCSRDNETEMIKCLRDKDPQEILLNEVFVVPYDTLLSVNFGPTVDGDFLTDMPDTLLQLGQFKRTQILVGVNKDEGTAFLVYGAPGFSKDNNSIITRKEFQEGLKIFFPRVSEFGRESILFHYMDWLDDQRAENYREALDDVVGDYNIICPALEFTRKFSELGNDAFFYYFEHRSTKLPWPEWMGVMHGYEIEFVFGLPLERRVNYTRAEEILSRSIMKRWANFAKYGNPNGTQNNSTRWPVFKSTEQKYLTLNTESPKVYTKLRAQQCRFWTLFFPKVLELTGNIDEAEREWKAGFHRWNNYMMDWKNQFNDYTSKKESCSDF
Chain of Cholinesterase (P81908 whole entry): as above
T1 sequence (P22303 whole entry): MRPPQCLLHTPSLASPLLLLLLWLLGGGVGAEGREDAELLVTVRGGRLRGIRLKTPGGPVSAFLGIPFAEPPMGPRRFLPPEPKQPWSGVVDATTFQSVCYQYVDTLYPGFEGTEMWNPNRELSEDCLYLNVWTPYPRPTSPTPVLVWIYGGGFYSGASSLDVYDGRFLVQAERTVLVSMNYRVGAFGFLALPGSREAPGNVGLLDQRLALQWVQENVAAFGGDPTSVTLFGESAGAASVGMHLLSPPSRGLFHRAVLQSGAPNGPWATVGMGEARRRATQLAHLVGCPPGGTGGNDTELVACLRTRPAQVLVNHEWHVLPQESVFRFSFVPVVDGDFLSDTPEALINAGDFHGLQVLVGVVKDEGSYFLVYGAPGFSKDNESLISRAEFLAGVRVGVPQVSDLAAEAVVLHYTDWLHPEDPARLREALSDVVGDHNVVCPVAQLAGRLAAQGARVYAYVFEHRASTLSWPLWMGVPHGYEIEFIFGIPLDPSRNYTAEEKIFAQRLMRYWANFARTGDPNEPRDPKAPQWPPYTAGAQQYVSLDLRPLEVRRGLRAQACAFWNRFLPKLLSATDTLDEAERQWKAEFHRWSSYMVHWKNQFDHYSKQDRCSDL

Compound: COc1cc2c(cc1OC)C(=O)C(CC1CCN(Cc3ccccc3)CC1)C2 (stereo not drawn)
- Activity (Homo sapiens): inactive
- Activity (Mus musculus [1]): Active
- Activity (Mus musculus [2]): Active

Compound: COc1cc(/C=C/C(=O)NCC(=O)Nc2ccc3[nH]ccc3c2)ccc1O
- Activity (Homo sapiens): Active
- Activity [3]: Non-Toxic
- Activity [4]: 31.3%
- IC50 (Cholinesterase): 14 µM
- Activity (Mus musculus [5]): Active
- cytotoxicity at 24 h, 20 µM [6]: 4.39%
- Activity [7]: Non-Toxic
- inhibition [8]: 58.7%
- Activity (Mus musculus [9]): Active
- Activity (Mus musculus [10]): Active
- Activity [11]: Active
- IC50 [12]: 57.4 µM
- inhibition (Acetylcholinesterase [13]): Active
- inhibition [14]: Active
- Activity (Mus musculus [15]): Active
- Activity [16]: Non-Toxic
- Activity [17]: Non-Toxic
- Activity [18]: Non-Toxic
- IC50 (Acetylcholinesterase [19]): 5.74 µM
- Activity [20]: Active
- Activity (Mus musculus [21]): Active
- Activity (Mus musculus [22]): Active
- Activity [23]: Non-Toxic
- Activity (Mus musculus [24]): Active

Compound: COc1cc(/C=C/C(=O)NCC(=O)Nc2cccc(C#N)c2)ccc1O
- inhibition [8]: 31.6%
- IC50 (Acetylcholinesterase [19]): 16 µM

Compound: COc1ccc(NC(=O)CNC(=O)/C=C/c2ccc(O)c(OC)c2)cc1
- Activity [4]: 23.6%
- IC50 (Cholinesterase): 19.5 µM
- inhibition [8]: 49.9%
- IC50 [12]: 91.2 µM
- IC50 (Acetylcholinesterase [19]): 17.3 µM

Compound: COc1cc(/C=C/C(=O)NCC(=O)Nc2cccc(C)c2)ccc1O
- inhibition [8]: 36.1%
- IC50 (Acetylcholinesterase [19]): 18.9 µM

Compound: COc1cc(/C=C/C(=O)NCC(=O)Nc2ccccc2)ccc1O
- inhibition [8]: 38.2%
- IC50 (Acetylcholinesterase [19]): 21.9 µM

Compound: COc1cc(/C=C/C(=O)NCC(=O)Nc2ccc(C#N)cc2)ccc1O
- inhibition [8]: 35.7%
- IC50 (Acetylcholinesterase [19]): 17.4 µM

Compound: COc1cc(/C=C/C(=O)NCC(=O)Nc2ccc(F)cc2)ccc1O
- inhibition [8]: 42.2%
- IC50 (Acetylcholinesterase [19]): 12.9 µM

Compound: COc1cc(/C=C/C(=O)NCC(=O)Nc2ccccc2F)ccc1O
- inhibition [8]: 31.9%
- IC50 (Acetylcholinesterase [19]): 17.2 µM

Compound: COc1cc(/C=C/C(=O)N2CCN(c3ccc(C)cc3)CC2)ccc1O
- inhibition [8]: 38.1%
- IC50 (Acetylcholinesterase [19]): 19.5 µM

Compound: COc1cc(/C=C/C(=O)N2CCN(c3ccc(F)cc3)CC2)ccc1O
- inhibition [8]: 27.7%
- IC50 (Acetylcholinesterase [19]): 11 µM

Compound: COc1cc(/C=C/C(=O)NCC(=O)Nc2ccc(C(F)(F)F)cc2)ccc1O
- inhibition [8]: 37.2%
- IC50 (Acetylcholinesterase [19]): 8.23 µM

Compound: COc1cc(/C=C/C(=O)NCC(=O)Nc2ccc3ncccc3c2)ccc1O
- Activity [4]: 18.6%
- IC50 (Cholinesterase): 14.3 µM
- inhibition [8]: 57.7%
- IC50 [12]: 77.6 µM
- IC50 (Acetylcholinesterase [19]): 4.89 µM

Compound: COc1cc(/C=C/C(=O)N2CCN(c3ccccc3)CC2)ccc1O
- inhibition [8]: 37%
- IC50 (Acetylcholinesterase [19]): 29.3 µM

Compound: COc1cc(/C=C/C(=O)NCC(=O)Nc2cccc(Br)c2)ccc1O
- inhibition [8]: 36.6%
- IC50 (Acetylcholinesterase [19]): 13.1 µM

Compound: COc1cccc(N2CCN(C(=O)/C=C/c3ccc(O)c(OC)c3)CC2)c1
- Activity [4]: 28.8%
- inhibition [8]: 26.9%
- IC50 [12]: 62 µM
- IC50 (Acetylcholinesterase [19]): 9.91 µM
